Here are results for five molecules from patent US9085463B2, “Water-soluble functionalized fullerenes” (Marelle, LLC, priority 2011, dated 2015).

Data set [1] is described as follows: DPPH radical-scavenging method (anti-oxidant potential). Type of data set: biochemical. The following applies: for RD(.05 mg): amount of compound needed to deplete .05 mg of DPPH: calculated from slope; for Slope (anti-oxidant potential): mg DPPH remaining vs mg compound, linear regression, absorbance at 517 nm. The source says: The ability of a component to serve as an anti-oxidant is readily tested by a variety of methods known in the art. These analytical methods measure the radical-scavenging activity of anti-oxidants against free radicals, such as the 1,1-diphenyl-2-picrylhydrazyl (DPPH) radical. […] This absorbance disappears as the DPPH is consumed upon reduction by an antiradical compound. The disappearance of this so-called absorbance band can be followed by spectroscopic methods allowing quantitative measurements of the compound's anti-oxidant ability.
Stock solutions of 100 micromolar DPPH were prepared using 3.9 milligrams (mg) of DPPH dissolved in 100 milliliters (ml) of solution using spectroscopic grade methanol (MeOH). 3.5 ml of the DPPH solution was combined with 0.5 ml of test solutions of various concentrations of the anti-oxidant compounds. The commercial anti-oxidants, which are not water soluble, were dissolved in MeOH while their functionalized fullerene derivatives were dissolved in distilled water. The test mixture was immediately placed in a spectrometer which measured the absorbance of the mixture at 517 nm at various intervals over periods of 6 to 8 hours. Typically 4 or more samples of the anti-oxidants at various concentrations were tested. The concentrations, expressed in milligrams per milliliter (mg/ml), were selected so that some of the samples would consume more than 50% of the DPPH and others would not.
The percent of DPPH remaining at a given time interval was calculated using the following equation:
[formula] ACt is the absorbance value to the compound/DPPH solution at time t, ADPPHi is the initial value of the DPPH control blank at time t=0, and ADPPHt′ is the absorbance value of the control blank DPPH at time t=t′. The term (ADPPHt−ADPPHt′) in the above equation is the absorbance correction factor for DPPH radical decay as measured in the control blank.
The % DPPHram was recorded for each of the four concentrations at two different reaction times (30 minutes and 300 minutes). The % DPPHram was converted to milligrams (mg) of DPPH remaining and plotted as a function of milligrams (mg) of compound for each of the two reaction times. Linear regressions were calculated for each of the data sets according to the following formula: CDPPH=mt·Cc+CDPPHo
CDPPH is the mass of DPPH remaining at time t=30 minutes and time t=300 minutes, Co is the mass of the compound in the cuvette, CDPPHo is the initial concentration of the DPPH in the cuvette, and mt is the slope determined by the linear regression. The slope was used as a parameter to estimate the anti-oxidant potential of the compound. […] FIGS. 30-34 illustrate the slope (anti-oxidant potential) of commercial anti-oxidants and their functionalized fullerenol derivatives (indicated with FF in the legends).
The slope for each compound was tabulated and the amount (mg) of compound needed to deplete 0.05 mg of DPPH was calculated (see Table 1).

A short description of data set [2]: UV absorbing ability (UV/Vis absorbance of solutions). The following applies: 0.5 mg/ml, avobenzone in acetone, functionalized fullerene in distilled water. In kind it is physicochemical. As for the experimental part:
The ability of a component to absorb UV light is readily tested using spectroscopic instruments, such as a UV/Vis spectrophotometer.
5.0 milligrams (mg) of avobenzone, a UV light absorbing substance widely used in sunscreens, was dissolved in 10 milliliters (ml) of reagent grade acetone. […] UV absorbance (A) of the resulting solutions was measured at 290 nm, 320 nm, and 400 nm.

Consider `CCCCC/C=C\C/C=C\C/C=C\C/C=C\CCCC(=O)O` [Arachidonic Acid, arachidonic acid, reference compound], for which the “RD(.05 mg): amount of compound needed to deplete .05 mg of DPPH” value (shortened to “RD(.05 mg): amount of compound needed”) in data set [1] (30 minutes reaction time) was 250.00 mg; in data set [1] (300 minutes reaction time), 45.45 mg. Also, the “Slope (anti-oxidant potential)” value in data set [1] (30 minutes reaction time) was -0.0002 mg/mg; in data set [1] (300 minutes reaction time) it was -0.0011 mg/mg.

For the molecule `COc1ccc(C(=O)CC(=O)c2ccc(C(C)(C)C)cc2)cc1` [Avobenzone, avobenzone], in data set [2] (290 nm), the “Absorbance (A) 290 nm” value was 0.297. Also, in data set [2] (320 nm), the “Absorbance (A) 320 nm” value was found to be 0.521. In addition, in data set [2] (400 nm), the “Absorbance (A) 400 nm” value was found to be 0.376.

Take `COC1=C(OC)C(=O)C(C/C=C(\C)CC/C=C(\C)CC/C=C(\C)CC/C=C(\C)CC/C=C(\C)CC/C=C(\C)CC/C=C(\C)CC/C=C(\C)CC/C=C(\C)CCC=C(C)C)=C(C)C1=O` [Coenzyme Q10, coenzyme Q10, reference compound]: in data set [1] (30 minutes reaction time), the “RD(.05 mg): amount of compound needed” value is reported as 125.00 mg and the “Slope (anti-oxidant potential)” value is -0.0004 mg/mg. In data set [1] (300 minutes reaction time), the “RD(.05 mg): amount of compound needed” value is 23.81 mg and the “Slope (anti-oxidant potential)” value is -0.0021 mg/mg.

For `CCCCC/C=C\C/C=C\CCCCCCCC(=O)O` [Linoleic Acid, linoleic acid, reference compound], in data set [1] (30 minutes reaction time), the “RD(.05 mg): amount of compound needed” value is on record as 6250.00 mg and the “Slope (anti-oxidant potential)” value is -0.000008 mg/mg. Moreover, in data set [1] (300 minutes reaction time), the “RD(.05 mg): amount of compound needed” value is listed as 100.00 mg and the “Slope (anti-oxidant potential)” value is -0.0005 mg/mg.

Take `CC/C=C\C/C=C\C/C=C\CCCCCCCC(=O)O` [Linolenic Acid, α-linolenic acid, reference compound]: the “RD(.05 mg): amount of compound needed” value in data set [1] (30 minutes reaction time) was 250.00 mg; in data set [1] (300 minutes reaction time), 45.45 mg. Also, the “Slope (anti-oxidant potential)” value in data set [1] (30 minutes reaction time) was -0.0002 mg/mg; in data set [1] (300 minutes reaction time) it was -0.0011 mg/mg.
